Assay results reported in the NIST ThermoML archive (doi:10.1021/je900545v).

Assays:
[1] = xn = mol fraction of the nth substance listed; conditions: 298.15 K, 101 kPa, Liquid; for electrical conductivity: DDSJ-308A Conductometer
[2] = refractive index (Na D-line) (dimensionless); xn = mol fraction of the nth substance listed; conditions: 298.15 K, 101 kPa, Liquid
[3] = 298.15 K, 101 kPa, Liquid

C=CCn1cc[n+](C)c1.[Cl-] [1-allyl-3-methylimidazolium chloride] + O
Conditions	electrical conductivity, [1] [S/m]	mass density, [1] [kg/m3]	refractive index, [2]	viscosity, [1] [mPa·s]
x1 = 0.000171	0.0795	1005	1.3329	0.8974
x1 = 0.000362	0.169	1007.5	1.333	0.8946
x1 = 0.000553	0.258	1001	1.3333	0.8979
x1 = 0.000754	0.345	1004.5	1.3336	0.8954
x1 = 0.001151	0.503	1004	1.334	0.9008
x1 = 0.001575	0.665	1004.7	1.3346	0.9038
x1 = 0.002478	0.969	1003	1.336	0.9234
x1 = 0.003359	1.24	1004.2	1.3375	0.9356
x1 = 0.004859	1.65	1005	1.34	0.9802
x1 = 0.006386	2.66	1006	1.3421	0.9919
x1 = 0.008102	3.02	1007.6	1.3452	1.043
x1 = 0.009949	3.29	1008.5	1.347	1.061
x1 = 0.01179	3.69	1011.6	1.3495	1.093
x1 = 0.01373	3.94	1016.5	1.352	1.129
x1 = 0.01765	4.65	1017.2	1.3574	1.193
x1 = 0.02156	5.33	1021.8	1.3635	1.252
x1 = 0.02565	5.97	1024	1.3676	1.322
x1 = 0.02973	6.23	1026	1.373	1.394
x1 = 0.03394	7.15	1029.2	1.3775	1.473
x1 = 0.04442	6.83	1040	1.3888	1.677
x1 = 0.05536	7.66	1046.8	1.3995	1.9
x1 = 0.06646	7.92	1054.2	1.4084	2.166
x1 = 0.07857	7.47	1061.8	1.4176	2.475
x1 = 0.09138	7.2	1073	1.4315	3.118
x1 = 0.1143	6.48	1084.1	1.4464	3.867
x1 = 0.1369	5.67	1092	1.4574	4.806
x1 = 0.1616	4.92	1100	1.4673	5.974
x1 = 0.1867	4.13	1105.8	1.4742	7.441
x1 = 0.211	3.91	1110.2	1.4831	7.9
x1 = 0.2245	3.82	1108.9	–	8.518
x1 = 0.3233	2.63	1127.8	–	18
x1 = 0.5083	0.00974	1132.8	–	48
x1 = 1	0.00695	1166	–	821

C=CCn1cc[n+](C)c1.[Cl-] [1-allyl-3-methylimidazolium chloride]
[3]
Conditions	mass density [kg/m3]	viscosity [mPa·s]
–	1166	821

Conditions	electrical conductivity [S/m]
[3], DDSJ-308A Conductometer	0.00695
